{"source": "patent US6287813A", "about": "“Antibiotic-based gene regulation system” (Cistronics Cell Technology GmbH, priority 1999, dated 2001)", "key": {"[1]": {"target": "T1, TET-responsive system (tTA/PhCMV*-1) (Escherichia coli, UniProt P04483)", "T1 construct": "expressed in transfected cells; host or cells: CHO-K1 clones CHO-TWIN195 and CHO-TWIN1108 (pTWIN1)", "T1 sequence (P04483 whole entry, added parts left off)": "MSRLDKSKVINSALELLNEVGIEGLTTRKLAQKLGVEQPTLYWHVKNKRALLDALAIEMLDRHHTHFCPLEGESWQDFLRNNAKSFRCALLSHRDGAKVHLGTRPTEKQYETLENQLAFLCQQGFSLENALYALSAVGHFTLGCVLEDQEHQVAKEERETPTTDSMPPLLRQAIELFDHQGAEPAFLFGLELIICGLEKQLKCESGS", "assay": "SEAP reporter assay, CHO-TWIN clones transfected with pMF111 (PhCMV*-1-SEAP)", "assay_type": "cell-based", "settings": "for SEAP Production (%): 48 h, no inducer = 100", "text": "(§1) pTWIN contains both PIT and tTA in a PSV40 -driven dicistronic configuration. For construction of pTWIN, PIT was first transferred from pMF156 as an EcoRI/HindIII fragment to the corresponding sites of pSBC-1 (EcoRI/HindIII; resulting in pMF167) before the PIT expression unit could be fused to the tTA expression unit contained on pSBC2-tTA (Fussenegger et al., 1997, supra) via SspI/NotI sites. Thus, pTWIN contains the dicistronic PSV40 -PIT-IRES-tTA-pA expression cassette.\n(§2) Chinese hamster ovary cells (CHO-K1, ATCC: CCL 61), Baby hamster kidney cells (BHK-21, ATCC: CRL-8544), and HeLa cells (ATCC: CRL-7923) as well as stable cell lines CHO-PIT1, CHO-PIT2, CHO-TWIN195, CHO-TWIN1108 and CHO-PIT1-SEAP were cultured as described before (Fussenegger et al., 1998, Nat. Biotechnol. 16,468-472) in the presence of appropriate antibiotics: G418 400 μg/ml; zeocin 100 μg/ml. Optimized CaPO4 protocols were used for high efficiency transient transfection of all cell lines (id). Transient transfected cells were routinely analyzed after 48 h for GFP or SEAP expression using fluorescence microscopy and p-nitrophenolphosphate-based light absorbance timecourse, respectively, as described before (Fussenegger et al., 1998, Nat. Biotechnol. 16, 468-472; Berger et al., 1988, Gene 66, 1-10 b). For construction of stable CHO-PIT and CHO-TWIN cell lines, CHO-K1 was cotransfected either with pMF156 or pTWIN1 and pSV2neo carrying the G418 resistance gene. CHO-PIT1-SEAP was constructed by cotransfection of pMF172 and pZeoSV2 (Invitrogen). For assessment of dose-response characteristics of PPIR -regulated gene expression, CHO-PIT1-SEAP were cultured at cell densities of 150,000/ml for 48 at various PI concentrations. The mixed populations were cloned using FACS-mediated single-cell-sorting (FACStar^Plus; Beckton Dickinson). Gel retardation assay were performed as described (Salah-Bey et al., 1995, supra) using Pip purified from an overproducing strain of E. coli. Pip (0.02 pmol) was titrated with a range of antibiotic concentrations in a reaction volume of 20 μl. Protein solutions were pre-incubated at room temperature for 15 min. in the absence or presence of PI or its derivative quinupristin in a buffer containing 10 mM Tris (pH 7.8), 10 mM MgCl2, 300 mM NaCl, 2 mM DTT and 10% glycerol. An EcoRI-HindII PPTR fragment (0.02 pmol) containing three Pip binding sites (radiolabelled using α-^32 P)dATP was added and incubated for 15 min. To minimize nonspecific protein binding and increase protein stability, 2 μg of poly dIdC and 20 μg BSA were included in the incubation mix. Protein-DNA complexes were separated on 5% polyacrylamide,TBE gels and visualized by autoradiography.\n(§3) CHO-TWIN195 and CHO-TWIN1108 were transfected under identical conditions with the isogenic plasmids containing the SEAP gene under control of the tTA-activated promoter PhCMV*-1 (pMF111) or the PIT-activated promoter PPIR (pMF172). Transfected cells were grown for 48 h in the presence or absence of either antibiotic prior to assay of SEAP activity.\n(§4) Table 6: Comparison of the regulation performance of streptogramin- (PI and virginiamycin; VIR) and tetracycline-based gene regulation systems. The two cell clones CHO-TWIN195 and CHO-TWIN1108 containing both pristinamycin- and tetracycline-dependent transactivators were transfected with either the streptogramin-responsive or the TET-responsive SEAP reporter plasmids pMF172 (PPIR -SEAP) and pMF111 (PhCMV*-1 -SEAP), respectively, and the relative SEAP production was assessed. SEAP production values are normalized by SEAP activities under the antibiotic-free, active promoter conditions as follows: pMF172 in CHO-TWIN195:1.7 mU/ml; in CHO-TWIN1108 : 1.8 mU/ml. pMF111 in CHO-TWIN195 : 18.6 mU/ml; in CHO-TWIN1108 : 19.2 mU/ml.\n(§5) Table 7: Compatibility of the streptogramin- and tetracycline-based gene regulation systems. Crossregulation of pristinamycin (PI) and the tetracyclines doxycycline (DOX) and tetracycline (TET). […]"}, "PIT/PPIR system [2]": {"target": "T2, PIT/PPIR system (Streptomyces coelicolor, UniProt Q9ADN3)", "T2 construct": "pMF156/pTWIN in CHO cells, PPIR-SEAP or GFP reporter", "T2 sequence (Q9ADN3 1-252)": "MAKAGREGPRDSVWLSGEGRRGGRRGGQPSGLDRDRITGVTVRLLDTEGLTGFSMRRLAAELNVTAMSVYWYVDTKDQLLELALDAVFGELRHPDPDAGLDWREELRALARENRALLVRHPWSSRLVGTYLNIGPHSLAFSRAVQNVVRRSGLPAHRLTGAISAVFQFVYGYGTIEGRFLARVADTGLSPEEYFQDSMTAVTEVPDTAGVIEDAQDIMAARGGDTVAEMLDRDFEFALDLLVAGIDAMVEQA", "assay": "SEAP reporter assay, CHO-TWIN clones transfected with pMF172 (PPIR-SEAP)", "assay_type": "cell-based", "settings": "for activity at 2 µg/mL / activity at 10 µg/mL: 48 h, CHO-TWIN1108 + pMF172, crossregulation, read-out: SEAP Production (%); for activity at 10 µg/mL: 10 μg/ml", "text": "as §1, §2, §3, §4, §5"}, "Pip/PPTR": {"target": "T3, Pip/PPTR (Streptomyces coelicolor, UniProt Q9ADN3)", "T3 construct": "gel retardation with ptr promoter DNA (PPTR) of S. pristinaespiralis", "T3 sequence (Q9ADN3 1-252)": "T2 sequence (Q9ADN3 1-252)", "assay": "Gel retardation assay of Pip/PPTR interaction", "assay_type": "binding", "settings": "Pip 0.2 pmol titrated with 50 pmol to 0.01 pmol antibiotic", "text": "FIG. 1: Gel retardation assay showing Pip/PPTR interaction. PPTR of S. pristinaespiralis contains 3 dyad symmetrical binding sites (lane A; PPTR in the absence of Pip) all of which are saturated at relatively large amounts of purified Pip (0.4 pmol; […]) resulting in a single shifted band. Smaller amounts of Pip (0.02 pmol) presented an intermediate situation in which all possible permutations of site occupancy are represented in three distinct retarded bands (lane C). Pip (0.2 pmol lanes D-M) was titrated with a range of PI from 50 pmol to 0.01 pmol (lanes D-H; D: 50 pmol; E: 10 pmol; F: 1 pmol; G: 0.1 pmol; H: 0.01 pmol). […]\nChinese hamster ovary cells (CHO-K1, ATCC: CCL 61), Baby hamster kidney cells (BHK-21, ATCC: CRL-8544), and HeLa cells (ATCC: CRL-7923) as well as stable cell lines CHO-PIT1, CHO-PIT2, CHO-TWIN195, CHO-TWIN1108 and CHO-PIT1-SEAP were cultured as described before (Fussenegger et al., 1998, Nat. Biotechnol. 16,468-472) in the presence of appropriate antibiotics: G418 400 μg/ml; zeocin 100 μg/ml. […] Transient transfected cells were routinely analyzed after 48 h for GFP or SEAP expression using fluorescence microscopy and p-nitrophenolphosphate-based light absorbance timecourse, respectively, as described before (Fussenegger et al., 1998, Nat. Biotechnol. 16, 468-472; Berger et al., 1988, Gene 66, 1-10 b). […]"}, "PIT/PPIR system [3]": {"target": "T2, PIT/PPIR system", "assay": "SEAP reporter assay, CHO-K1 cotransfected with pMF156 (PIT) and pMF172 (PPIR-SEAP)", "assay_type": "cell-based", "experimental": "PIT, the fusion protein of Pip and the VP16 C-terminal transactivation domain of Herpes simplex (Triezenberg et al., 1988, Genes Dev. 2, 718-729) was constructed by amplifying the S. coelicolor Pip from pGemT::Epip4 with oligos:\nas §2\nFive different sources of pristinamycin were used: The two therapeutic forms Pyostacin™ and Synercid™, pristinamycin discs, and the single compounds pristinamycin I (PI) and pristinamycin II (PII). Pyostacin™ pills (500 mg) were ground in a mortar and solubilized in DMSO or water at a stock concentration of 50 mg/ml. Synercid™ (RP 59500; Lot Nr. CB06253) was provided by Aventis in injection-ready vials containing 500 mg lyophilized antibiotic which was reconstituted in 5 ml of 5% glucose solution and frozen at -20° C. Individual pristinamycin compounds PI and PII (identical to virginiamycin M1 (VM1); Sigma ref. V2753) were solubilized in DMSO at a concentration of 50 mg/ml and kept at -20° C. Antibiotic discs containing 15 μg pristinamycin or virginiamycin (bioMerieux, ref. 54552; bioMerieux, ref. 54612) were soaked in 1 ml cell culture medium at 4i C for up to 24 h. […] The concentration of individual streptogramin components was calculated based on their fixed 70:30 ratio (w/w; PII/VM1 /dalfopristin: PI/VS1 /quinupristin). […]"}}, "data": [{"smiles": "CN(C)[C@@H]1C(=O)C(C(N)=O)=C(O)[C@@]2(O)C(=O)C3=C(O)c4c(O)cccc4[C@@](C)(O)[C@H]3C[C@@H]12", "note": "[TET, tetracycline]", "values": [{"measurement": "Induction factor (IF; ratio of maximal expression level to antibiotic-repressed expression level)", "setting": "[1]; CHO-TWIN195 + pMF111", "result": 12}, {"measurement": "SEAP Production (%)", "setting": "[1]; CHO-TWIN195 + pMF111", "result": "8.57 ± 0.37", "unit": "%"}, {"measurement": "Induction factor (fold downregulation of SEAP)", "setting": "[1]; CHO-TWIN1108 + pMF111, 2880 min", "result": 13, "unit": "fold"}, {"measurement": "SEAP Production (%)", "setting": "[1]; CHO-TWIN1108 + pMF111", "result": "7.56 ± 0.01", "unit": "%"}, {"measurement": "inhibition at 2 µg/mL", "setting": "PIT/PPIR system [2]; 2 μg/ml, read-out: Repressive effect on the PIT/PPIR system", "result": 17, "unit": "%"}, {"measurement": "activity at 2 µg/mL", "setting": "PIT/PPIR system [2]; 2 μg/ml", "result": "87.7 ± 1.76", "unit": "%"}, {"measurement": "activity at 10 µg/mL", "setting": "PIT/PPIR system [2]", "result": "57.5 ± 5", "unit": "%"}]}, {"smiles": "C[C@H]1c2cccc(O)c2C(O)=C2C(=O)[C@]3(O)C(O)=C(C(N)=O)C(=O)[C@@H](N(C)C)[C@@H]3[C@@H](O)[C@@H]21", "note": "[DOX, doxycycline]", "values": [{"measurement": "activity at 2 µg/mL", "setting": "PIT/PPIR system [2]; 2 μg/ml", "result": "77 ± 6.9", "unit": "%"}, {"measurement": "activity at 10 µg/mL", "setting": "PIT/PPIR system [2]", "result": "50.5 ± 7.9", "unit": "%"}]}, {"smiles": "CC[C@H]1NC(=O)[C@@H](NC(=O)c2ncccc2O)[C@@H](C)OC(=O)[C@H](c2ccccc2)NC(=O)[C@@H]2CC(=O)[C@H](CS[C@@H]3CN4CCC3CC4)CN2C(=O)[C@H](Cc2ccc(N(C)C)cc2)N(C)C(=O)[C@@H]2CCCN2C1=O", "note": "(stereo in doubt) [quinupristin]", "values": [{"measurement": "Release of Pip from PPTR", "setting": "Pip/PPTR", "result": "only partial release"}]}, {"smiles": "CC1=CC(O)CC(=O)Cc2nc(co2)C(=O)N2CCC=C2C(=O)OC(C(C)C)C(C)C=CC(=O)NCC=C1", "note": "(stereo not drawn) [PII, pristinamycin II]", "values": [{"measurement": "Downregulation of PIT/PPIR-mediated SEAP expression", "setting": "PIT/PPIR system [3]; CHO-K1, 2 μg/ml", "result": "did not display any significant repression activity"}, {"measurement": "activity at 2 µg/mL", "setting": "PIT/PPIR system [3]; CHO-K1, inducer 2 μg/ml, assayed 48 hr later, no inducer = 100, read-out: SEAP Production (%)", "result": "96.3 ± 3.2", "unit": "%"}]}]}
